Source: the supplement of paper PMC10307832

How the values were obtained:
Test in all cases: relative viability (nuclei count vs DMSO), 5 days (fraction); higher = more cells survive
Alpelisib + Trametinib = compound: Cc1nc(NC(=O)N2CCC[C@H]2C(N)=O)sc1-c1ccnc(C(C)(C)C(F)(F)F)c1 [Alpelisib] + CC(=O)Nc1cccc(-n2c(=O)n(C3CC3)c(=O)c3c(Nc4ccc(I)cc4F)n(C)c(=O)c(C)c32)c1 [Trametinib] (partner 0.02 µM)
Procedure, shortened: (§1)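 Lung cancer cell lines in 1536-well plates were dosed by pin tool the day after seeding, either with one drug alone or with a fixed anchor-drug dose plus five library-drug doses (not always all listed) in √10 steps. After 5 days, cells were fixed and their nuclei stained in one step (final 0.05% Triton X-100, 1% formaldehyde, 1 ug/ml Hoechst), then counted on 4× images. Relative viability is the nuclei count in treated wells divided by that in vehicle wells. Values are medians of duplicate plates.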

Alpelisib + Navitoclax = compound: Cc1nc(NC(=O)N2CCC[C@H]2C(N)=O)sc1-c1ccnc(C(C)(C)C(F)(F)F)c1 [Alpelisib] + CC1(C)CCC(c2ccc(Cl)cc2)=C(CN2CCN(c3ccc(C(=O)NS(=O)(=O)c4ccc(N[C@H](CCN5CCOCC5)CSc5ccccc5)c(S(=O)(=O)C(F)(F)F)c4)cc3)CC2)C1 [Navitoclax] (partner 0.5 µM)
Procedure, shortened: as §1

Vemurafenib + Phenformin = compound: CCCS(=O)(=O)Nc1ccc(F)c(C(=O)c2c[nH]c3ncc(-c4ccc(Cl)cc4)cc23)c1F [Vemurafenib] + N=C(N)NC(=N)NCCc1ccccc1 [Phenformin] (partner 250 µM)
Procedure, shortened: as §1

Alpelisib + Vorinostat = compound: Cc1nc(NC(=O)N2CCC[C@H]2C(N)=O)sc1-c1ccnc(C(C)(C)C(F)(F)F)c1 [Alpelisib] + O=C(CCCCCCC(=O)Nc1ccccc1)NO [Vorinostat] (partner 1 µM)
Procedure, shortened: as §1

| Cell Line | relative viability (Alpelisib + Trametinib; first compound 0.04 µM) | relative viability (Alpelisib + Trametinib; first compound 0.1265 µM) | relative viability (Alpelisib + Trametinib; first compound 0.4 µM) | relative viability (Alpelisib + Trametinib; first compound 1.265 µM) | relative viability (Alpelisib + Trametinib; first compound 4 µM) | relative viability (Alpelisib + Navitoclax; first compound 0.04 µM) | relative viability (Alpelisib + Navitoclax; first compound 0.1265 µM) | relative viability (Alpelisib + Navitoclax; first compound 0.4 µM) | relative viability (Alpelisib + Navitoclax; first compound 1.265 µM) | relative viability (Alpelisib + Navitoclax; first compound 4 µM) | relative viability (Vemurafenib + Phenformin; first compound 0.03162 µM) | relative viability (Vemurafenib + Phenformin; first compound 0.1 µM) | relative viability (Vemurafenib + Phenformin; first compound 0.3162 µM) | relative viability (Vemurafenib + Phenformin; first compound 1 µM) | relative viability (Alpelisib + Vorinostat; first compound 0.04 µM) | relative viability (Alpelisib + Vorinostat; first compound 0.1265 µM) | relative viability (Alpelisib + Vorinostat; first compound 0.4 µM) | relative viability (Alpelisib + Vorinostat; first compound 1.265 µM) | relative viability (Alpelisib + Vorinostat; first compound 4 µM) |
| --- | --- | --- | --- | --- | --- | --- | --- | --- | --- | --- | --- | --- | --- | --- | --- | --- | --- | --- | --- |
| NCI-H1355 | 0.397 | 0.421 | 0.386 | 0.356 | 0.292 | 0.89 | 1.02 | 1.07 | 0.927 | 0.84 | 0.424 | 0.426 | 0.36 | 0.487 | 0.626 | 0.609 | 0.677 | 0.529 | 0.398 |
| HCC-827 | 0.547 | 0.504 | 0.492 | 0.401 | 0.33 | 1 | 1.02 | 1.06 | 1.01 | 0.908 | 0.377 |  | 0.425 | 0.404 | 0.899 | 0.707 | 0.495 | 0.856 | 0.647 |
| NCI-H2085 | 0.57 | 0.468 | 0.496 | 0.495 | 0.338 | 1.2 | 1.06 | 1.14 | 0.914 | 1.11 | 0.65 | 0.57 | 0.683 | 0.676 | 0.801 | 0.686 | 0.888 | 0.754 | 0.633 |
| NCI-H1755 | 0.852 | 0.726 | 0.718 | 0.72 | 0.668 | 1.05 | 0.979 | 1.04 | 0.93 | 0.705 | 0.545 | 0.599 | 0.377 | 0.597 | 0.774 | 0.71 | 0.873 | 0.605 | 0.632 |
| PC-14 | 0.735 | 0.686 | 0.62 | 0.292 | 0.709 | 0.984 | 1.08 | 1.16 | 0.913 | 0.945 | 0.456 |  | 0.218 | 0.652 | 0.771 | 0.681 | 0.717 | 0.432 | 0.624 |
| NCI-H3122 | 0.201 | 0.221 | 0.172 | 0.181 | 0.136 | 1.03 | 0.982 | 1.02 | 0.906 | 0.81 | 0.357 | 0.372 | 0.292 | 0.394 | 0.783 | 0.985 | 1.28 | 1.01 | 0.491 |
| SK-LU-1 | 0.474 | 0.566 | 0.53 | 0.392 | 0.345 | 0.781 | 0.788 | 0.845 | 0.814 | 0.654 | 0.428 | 0.555 | 0.384 | 0.521 | 0.817 | 0.775 | 0.847 | 0.676 | 0.689 |
| HCC-44 | 1.05 | 1.12 | 1.03 | 0.849 | 0.81 | 0.949 | 0.983 | 1.04 | 0.802 | 0.735 | 0.157 | 0.206 |  | 0.213 | 1.1 | 1.05 | 1.11 | 1.04 | 1.18 |
| NCI-H460 | 0.093 | 0.161 | 0.155 | 0.0725 | 0.0881 | 1.06 | 1.25 | 1.08 | 0.701 | 0.299 | 0.495 | 0.52 | 0.316 | 0.52 | 0.717 | 0.788 | 0.938 | 0.564 | 0.434 |
| NCI-H1915 | 0.307 | 0.304 | 0.312 | 0.285 | 0.26 | 0.8 | 0.829 | 0.82 | 0.764 | 0.504 | 0.354 | 0.348 | 0.255 | 0.332 | 0.543 | 0.543 | 0.577 | 0.448 | 0.509 |
| NCI-H2126 | 0.545 | 0.504 | 0.526 | 0.416 | 0.381 | 0.768 | 0.865 | 0.816 | 0.618 | 0.525 | 0.513 | 0.485 |  | 0.533 | 0.717 | 0.565 | 0.67 | 0.5 | 0.457 |
| EPLC-272H | 0.268 | 0.255 | 0.315 | 0.238 | 0.231 | 1.16 | 1.05 | 1.19 | 0.722 | 0.79 | 0.355 | 0.226 | 0.263 | 0.362 | 0.474 | 0.455 | 0.465 | 0.209 | 0.222 |
| PC-3 [JPC-3] | 0.704 | 0.602 | 0.685 | 0.655 | 0.578 | 0.828 | 0.836 | 0.848 | 0.73 | 0.762 | 0.482 |  | 0.498 | 0.513 | 0.877 | 0.699 | 1.12 | 0.638 | 0.514 |
| NCI-H2087 | 0.183 | 0.174 | 0.195 | 0.163 | 0.164 | 1.01 | 1.09 | 1.1 | 0.767 | 0.991 | 0.438 | 0.402 |  | 0.467 | 0.808 | 0.669 | 0.583 | 0.647 | 0.853 |
| NCI-H1666 | 0.799 | 0.841 | 0.903 | 0.784 | 0.71 | 0.95 | 0.677 | 0.937 | 0.762 | 0.689 | 0.549 | 0.594 | 0.63 | 0.604 | 0.978 | 1.1 | 1.07 | 0.876 | 0.727 |
| NCI-H2009 | 0.264 | 0.276 | 0.28 | 0.285 | 0.224 | 1.24 | 1.14 | 1.16 | 1.08 | 1.13 | 0.458 | 0.418 | 0.343 | 0.361 | 0.675 | 0.711 | 0.784 | 0.669 | 0.658 |
| NCI-H2228 | 0.415 | 0.536 | 0.399 | 0.314 | 0.123 | 0.977 | 1 | 0.552 | 0.51 | 0.294 | 0.376 | 0.298 | 0.302 | 0.267 | 0.714 | 0.48 | 0.401 | 0.566 | 0.413 |
